Source: the supplement of paper PMC5908809

Legend:
KAI3 (IL-2 2.5 ng/mL) [1] = experiment: percent inhibition of viability; higher = more inhibition; settings: 72 h
KHYG-1 (IL-2 2.5 ng/mL) [2] = experiment: as above; settings: 72 h
DERL-7 (IL-2 2.5 ng/mL) [3] = experiment: as above; settings: 72 h
[4] = tested on: normal primary NK cells, pool 1 (3 donors) (IL-2 2.5 ng/mL); experiment: as above; settings: 72 h
NK-92 (IL-2 2.5 ng/mL) [5] = experiment: as above; settings: 72 h
NKL (IL-2 2.5 ng/mL) [6] = experiment: as above; settings: 72 h
YT (IL-2 2.5 ng/mL) [7] = experiment: as above; settings: 72 h
SNK-6 (IL-2 2.5 ng/mL) [8] = experiment: as above; settings: 72 h
[9] = tested on: normal primary NK cells, pool 1 (3 donors), resting (IL-2 0 ng/mL); experiment: as above; settings: 72 h
NK-YS (IL-2 2.5 ng/mL) [10] = experiment: as above; settings: 72 h
KAI3 (IL-2 2.5 ng/mL) [11] = experiment: drug sensitivity score (DSS) (DSS units); higher = more sensitive; extreme values may be limits of the assay; settings: 72 h
KHYG-1 (IL-2 2.5 ng/mL) [12] = experiment: as above; settings: 72 h
DERL-7 (IL-2 2.5 ng/mL) [13] = experiment: as above; settings: 72 h
[14] = tested on: normal primary NK cells, pool 1 (3 donors) (IL-2 2.5 ng/mL); experiment: as above; settings: 72 h
NK-92 (IL-2 2.5 ng/mL) [15] = experiment: as above; settings: 72 h
NKL (IL-2 2.5 ng/mL) [16] = experiment: as above; settings: 72 h
YT (IL-2 2.5 ng/mL) [17] = experiment: as above; settings: 72 h
SNK-6 (IL-2 2.5 ng/mL) [18] = experiment: as above; settings: 72 h
[19] = tested on: normal primary NK cells, pool 1 (3 donors), resting (IL-2 0 ng/mL); experiment: as above; settings: 72 h
NK-YS (IL-2 2.5 ng/mL) [20] = experiment: as above; settings: 72 h
[21] = tested on: normal NK cells expanded with K562-aAPC; experiment: as above; settings: 72 h; IL-2 2.5 ng/mL
Protocol: (§1)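 Drug sensitivity and resistance testing on K562-aAPC-expanded normal NK cells: 5 concentrations (10-fold steps over a 10,000-fold range), 72 h at 37 °C, viability by CellTiter-Glo normalised to DMSO and benzethonium chloride controls; DSS from the fitted curve.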

IMC-1 (IL-2 20 ng/mL) [22] = experiment: percent inhibition of viability; higher = more inhibition; settings: 72 h
[23] = tested on: normal primary NK cells, pool 3 (3 donors) (IL-2 2.5 ng/mL); experiment: as above; settings: 72 h
[24] = tested on: normal primary NK cells, pool 2 (3 donors) (IL-2 2.5 ng/mL); experiment: as above; settings: 72 h
IMC-1 (IL-2 20 ng/mL) [25] = experiment: drug sensitivity score (DSS) (DSS units); higher = more sensitive; extreme values may be limits of the assay; settings: 72 h
[26] = tested on: normal primary NK cells, pool 3 (3 donors) (IL-2 2.5 ng/mL); experiment: as above; settings: 72 h
[27] = tested on: normal primary NK cells, pool 2 (3 donors) (IL-2 2.5 ng/mL); experiment: as above; settings: 72 h
[28] = tested on: normal NK cells expanded with K562-aAPC; experiment: percent inhibition of viability; higher = more inhibition; settings: 72 h, IL-2 2.5 ng/mL
Protocol: as §1

CON(C)C(=O)N1N=C(c2cc(F)ccc2F)S[C@@]1(CCCN)c1ccccc1 [ARRY-520] (max concentration tested 1000 nM)
percent inhibition of viability [%]
Settings | DERL-7 (IL-2 2.5 ng/mL) [3] | KAI3 (IL-2 2.5 ng/mL) [1] | KHYG-1 (IL-2 2.5 ng/mL) [2] | NK-92 (IL-2 2.5 ng/mL) [5] | NK-YS (IL-2 2.5 ng/mL) [10] | NKL (IL-2 2.5 ng/mL) [6] | SNK-6 (IL-2 2.5 ng/mL) [8] | YT (IL-2 2.5 ng/mL) [7] | [4] | [9]
0.1 nM | -10.8 | -7.27 | -0.04 | -13.1 | -0.87 | 1.77 | 21 | 1.27 | -14.6 | -28.7
1 nM | 1.72 | -8.08 | -0.06 | -13.4 | 0.68 | -1.49 | 12.7 | 1.15 | -9.86 | -37.1
10 nM | 98.7 | 45.9 | 98.8 | 45.1 | 71.2 | 78.1 | 81.8 | 7.04 | -12 | -37.4
100 nM | 100 | 49.6 | 107 | 92.3 | 77 | 93.3 | 88 | 65.3 | 2.21 | -9.59
1000 nM | 100 | 49.5 | 103 | 89.1 | 76.6 | 87.7 | 87.7 | 65.7 | -7.49 | -26.9

Settings | drug sensitivity score
DERL-7 (IL-2 2.5 ng/mL) [13] | 30.5
KAI3 (IL-2 2.5 ng/mL) [11] | 14.6
KHYG-1 (IL-2 2.5 ng/mL) [12] | 30.3
NK-92 (IL-2 2.5 ng/mL) [15] | 22.4
NK-YS (IL-2 2.5 ng/mL) [20] | 23.1
NKL (IL-2 2.5 ng/mL) [16] | 26
SNK-6 (IL-2 2.5 ng/mL) [18] | 27.8
YT (IL-2 2.5 ng/mL) [17] | 13.2
[14] | 0
[19] | 0

CCN(CC)CCCC(C)Nc1ccnc2cc(Cl)ccc12 (stereo not drawn) [Chloroquine] (max concentration tested 100000 nM)
Settings | drug sensitivity score
IMC-1 (IL-2 20 ng/mL) [25] | 5.31
[21] | 14.2
[26] | 11.8
[27] | 9.79

percent inhibition of viability [%]
Settings | 10 nM | 100 nM | 1000 nM | 10000 nM | 100000 nM
IMC-1 (IL-2 20 ng/mL) [22] | -9.53 | -2.15 | -3.29 | -3.07 | 99.8
[23] | -6.29 | 3.82 | 7.92 | 52.1 | 101
[24] | -5.74 | 2.44 | 3.84 | 28.9 | 101
[28] | -7.98 | -8.65 | -3.82 | 76 | 101

N.N.[Cl][Pt][Cl] [Cisplatin] (max concentration tested 100000 nM)
Settings | drug sensitivity score
IMC-1 (IL-2 20 ng/mL) [25] | 27.8
[21] | 14.1
[26] | 9.04
[27] | 8.93

percent inhibition of viability [%]
Settings | 10 nM | 100 nM | 1000 nM | 10000 nM | 100000 nM
IMC-1 (IL-2 20 ng/mL) [22] | 0.88 | -0.16 | 84.2 | 100 | 100
[23] | -4.27 | 1.37 | -2.08 | 24 | 96.7
[24] | -10.5 | -3.22 | -1.72 | 25.3 | 92.7
[28] | 2.08 | 1.39 | 16.1 | 62.8 | 99.8

CCN(c1cc(-c2ccc(CN3CCOCC3)cc2)cc(C(=O)NCc2c(C)cc(C)[nH]c2=O)c1C)C1CCOCC1 [E7438] (max concentration tested 10000 nM)
percent inhibition of viability [%]
Settings | DERL-7 (IL-2 2.5 ng/mL) [3] | KAI3 (IL-2 2.5 ng/mL) [1] | KHYG-1 (IL-2 2.5 ng/mL) [2] | NK-92 (IL-2 2.5 ng/mL) [5] | NK-YS (IL-2 2.5 ng/mL) [10] | NKL (IL-2 2.5 ng/mL) [6] | SNK-6 (IL-2 2.5 ng/mL) [8] | YT (IL-2 2.5 ng/mL) [7] | [4] | [9]
1 nM | 7.34 | -4.36 | -5.22 | -6.98 | -4.53 | -13.6 | 1.4 | -6.25 | 3.3 | 6.57
10 nM | 4.06 | 3.43 | -1.93 | -6.59 | -0.35 | -3.23 | 5.22 | -2.68 | -9.28 | -0.47
100 nM | 9.96 | 0.88 | 0.98 | 11.7 | 5.89 | 3.68 | 2.14 | 0.66 | 3.33 | 9.19
1000 nM | 1.71 | -7.37 | 0.03 | 12.3 | 2.91 | 3.36 | 2.9 | -5.62 | -10.7 | -13.6
10000 nM | 11.7 | -7.23 | 4.04 | 18 | 11.4 | -3.21 | -16.1 | 0.29 | -1.96 | 3.73

Settings | drug sensitivity score
DERL-7 (IL-2 2.5 ng/mL) [13] | 0
KAI3 (IL-2 2.5 ng/mL) [11] | 0
KHYG-1 (IL-2 2.5 ng/mL) [12] | 0
NK-92 (IL-2 2.5 ng/mL) [15] | 3.24
NK-YS (IL-2 2.5 ng/mL) [20] | 0
NKL (IL-2 2.5 ng/mL) [16] | 0
SNK-6 (IL-2 2.5 ng/mL) [18] | 0
YT (IL-2 2.5 ng/mL) [17] | 0
[14] | 0
[19] | 0
